Measured values as given in article PMC5913986, “Repurposing and Reformulation of the Antiparasitic Agent Flubendazole for Treatment of Cryptococcal Meningoencephalitis, a Neglected Fungal Disease” (Antimicrobial Agents and Chemotherapy, 2018).

Tests used:
[1] = design: species or system mice; settings: mouse, in vivo
Procedure: The pharmacokinetics of oral flubendazole was determined with two independently conducted experiments. Treatment was initiated 24 h postinoculation. Doses of 2 to 12 mg/kg were used. Only the first dosing interval was studied. A serial-sacrifice design was used with groups of 3 mice that were sacrificed at 0.5, 1, 2, 8, and 24 h […].
(§1) The pharmacokinetic and pharmacodynamic data sets from mice were modeled using the program Pmetrics ([33]) and the following five inhomogeneous differential equations: (1) XP(1)=B(1)−Ka×X(1) (2) XP(2)=Ka×X(1)−(SCL/V)×X(2)−Kcp×X(2)+Kpc×X(3)−Kcb×X(2)+Kbc×X(4) (3) XP(3)=Kcp×X(2)−Kpc×X(3) (4) XP(4)=[…] (5) XP(5) = Kgmax [1−((X(4)/V)^Hg/C50g^Hg+(X(4)/V)^Hg)] × [1−(X(5)/POPMAX)]×X(5)
(§2) The system parameters and their units are as follows: B(1) (mg) represents the bolus input of flubendazole into the gut. Ka (h^−1) is the first-order rate constant collecting the gut and the central compartment, SCL (liters/h) is the clearance of flubendazole from the central compartment, V (liters) is the volume of the central compartment, and Kcp (h^−1) and Kpc (h^−1) are the first-order intercompartmental rate constants. Kgmax (log10 CFU/g/h) is the maximal rate of cryptococcal growth. POPMAX (CFU/g) is the maximum theoretical fungal density. C50g (mg/liter) is the concentration of flubendazole that induces half-maximal effects on growth. Hg is the slope function for growth. The initial condition (CFU/g; not shown in the equations) is the fungal density immediately following inoculation and is estimated along with other parameters.
(§3) Equations 1, 2, 3, and 4 are pharmacokinetic equations that describe the movement of drug from the gut, throughout the body, and into the brain. Equation 1 describes the movement of drug from the gut. Equation 2 describes the rate of change of flubendazole in the central compartment (plasma) with first-order clearance and movement of drug to and from both a peripheral (unmeasured) compartment and the cerebrum. Equations 3 and 4 describe the rate of change of drug in the peripheral and cerebral compartments, respectively. The pharmacodynamics of flubendazole against Cryptococcus neoformans is described by equation 5, which has terms that describe the capacity-limited growth of Cryptococcus and flubendazole-induced suppression of growth. The antifungal activity in the cerebrum is primarily related to concentrations in the cerebrum.

[2] = rats, 5, 15, 30 mg/kg/day (male), 2.5, 5, 10 mg/kg/day (female), 2 weeks; ref Janssen GLP toxicology studies; cited from earlier work
C. neoformans isolates = test: MIC determination, CLSI methodology; assay type: cell-based, Cryptococcus neoformans; settings: 50 strains
Procedure: The initial in vitro susceptibility testing was performed with H99 (ATCC 208821). An additional 49 clinical isolates were obtained from the National Centre for Microbiology Instituto de Salud Carlos III, Madrid, Spain (courtesy of Ana Alastruey-Izquierdo and Manual Cuenca-Estrella). These isolates were identified to the species level using standard microbiological techniques.
The MIC of flubendazole against H99 (ATCC 208821) and the 49 isolates was estimated using methodology of the European Committee on Antimicrobial Susceptibility Testing (EUCAST [25]) and the Clinical and Laboratory Standards Institute (CLSI [26]). The endpoint for MIC determination using was 50% for both the EUCAST and CLSI methods. MICs were performed in triplicate.

porcine tubulin = molecular target: T1, porcine tubulin (Sus scrofa, UniProt P02554); test: Porcine tubulin polymerization assay; assay type: biochemical; settings: 37°C, 1 h, read-out: IC50 against porcine tubulin
T1 construct: purified porcine brain tubulin; purchased Cytoskeleton, Inc., Denver, CO BK011P; host or cells: porcine brain (tissue-purified)
Procedure: Porcine tubulin is generally used as a surrogate for human tubulin because of its high degree of homology (95%) ([27]). […] The commercially available porcine tubulin assay (BK011P; Cytoskeleton, Inc., Denver, CO) quantifies the time-dependent polymerization of tubulin to microtubules and thus the ability of tubulin inhibitors to disrupt this process.
The porcine tubulin assay was performed according to the manufacturer's instructions. Briefly, the 96-well assay plate was prewarmed to 37°C prior to use. Five microliters of test compound(s) and controls at 0, 1.25, 2.5, 5, and 10 μM were aliquoted into each well and prewarmed for 1 min. […] Polymerization was initiated by mixing 45 μl of reaction buffer that contained 2 mg/ml of purified porcine brain tubulin, 10 μM fluorescent reporter, PEM buffer (80 mM PIPES, 0.5 mM EGTA, 2 mM MgCl2 [pH 6.9]), 1 mM GTP, and 20.3% glycerol. Tubulin polymerization was followed by an increase in fluorescence intensity due to the incorporation of a fluorescence reporter into microtubules as polymerization occurred. The change in fluorescence was measured using an excitation and emission wavelength of 360 nm and 450 nm, respectively, every 1 min for 1 h at 37°C using a Varioskan multimode plate reader (Thermo scientific Inc.). All data points were acquired in triplicate, and IC50s were calculated with GraphPad Prism. […]

In vitro DMPK: logD7.4 = assay type: physicochemical; settings: pH 7.4; commercially available powder
Cryptococcus neoformans = test: Pharmacodynamics of oral flubendazole nanoformulation in murine model of cryptococcal meningitis; assay type: in vivo; settings: mice
Procedure: A previously described ([8]) and well-characterized murine model of cryptococcal meningitis was used to investigate the pharmacodynamics of flubendazole. All laboratory animal experiments were performed under UK Home Office project license PPL40/3630 and were approved by the University of Liverpool's Animal Welfare Ethics Review Board. Male CD1 mice were purchased from Charles River and were 20 to 30 g at the time of experimentation. An inoculum of 3 × 10^8 CFU in 0.25 ml was used for each mouse. Groups of mice (n = 3) were serially sacrificed throughout the experimental period. The brains were removed and homogenized. Serial 10-fold dilutions were plated to YPD agar supplemented with chloramphenicol to enumerate the total fungal burden. Plates were incubated in air at 30°C for at least 48 h.
The pharmacodynamics of oral flubendazole was estimated over the course of three separate independently conducted experiments. Groups of 3 mice were sacrificed at 2, 24, 48, 96, 144, and 168 h postinoculation. Dose finding studies were performed using flubendazole at 2, 4, 6, 8, and 12 mg/kg q24h orally. The upper dosage was limited by the volume restrictions for mice imposed by Home Office project license PPL40/3630. A fourth experiment compared 12 mg/kg q24 with 6 mg/kg q12h to examine whether more fractionated regimens provided any additional antifungal effect.
as §1, §2, §3

[3] = Pharmacokinetics of oral flubendazole in rabbits
Procedure: PK-PD relationships in the rabbit were estimated in two independently conducted experiments including 6 rabbits in each. Rabbits were placed under general anesthesia for removal of CSF via intracisternal tapping at 48 h intervals. […] Treatment was initiated 48 h postinoculation and continued for 10 days, after which time all rabbits were sacrificed. Thus, the total duration of the experiment was 288 h.
Flubendazole concentrations in all matrices were measured using validated ultrahigh-performance liquid chromatography-tandem mass spectrometry (LC-MS/MS) implemented on an Agilent 6420 triple quad mass spectrometer and an Agilent 1290 infinity LC system (Agilent Technologies UK Ltd., Cheshire, UK). Flubendazole was extracted by protein precipitation by adding 300 μl of a 50:50 mix of acetonitrile and methanol that contained the internal standard [6,7-dimethyl-2,3-di(2-pyridyl) quinoxaline; Sigma-Aldrich, Dorset, UK] at a final concentration of 1 mg/liter to 30 μl of each matrix.

T1 sequence (P02554 whole entry): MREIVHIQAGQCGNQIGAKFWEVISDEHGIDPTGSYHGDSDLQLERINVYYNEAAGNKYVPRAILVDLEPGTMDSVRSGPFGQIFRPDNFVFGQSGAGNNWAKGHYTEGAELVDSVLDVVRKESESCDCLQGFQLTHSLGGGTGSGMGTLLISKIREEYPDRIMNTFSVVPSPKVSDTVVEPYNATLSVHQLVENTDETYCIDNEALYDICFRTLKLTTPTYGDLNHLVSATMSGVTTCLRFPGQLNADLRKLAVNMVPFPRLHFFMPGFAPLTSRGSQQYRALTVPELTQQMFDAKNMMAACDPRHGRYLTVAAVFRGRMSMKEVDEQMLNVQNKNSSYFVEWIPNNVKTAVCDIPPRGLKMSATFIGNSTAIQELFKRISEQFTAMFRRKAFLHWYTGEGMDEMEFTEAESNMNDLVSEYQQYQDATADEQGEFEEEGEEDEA
T1 sequence (P02550 whole entry partner): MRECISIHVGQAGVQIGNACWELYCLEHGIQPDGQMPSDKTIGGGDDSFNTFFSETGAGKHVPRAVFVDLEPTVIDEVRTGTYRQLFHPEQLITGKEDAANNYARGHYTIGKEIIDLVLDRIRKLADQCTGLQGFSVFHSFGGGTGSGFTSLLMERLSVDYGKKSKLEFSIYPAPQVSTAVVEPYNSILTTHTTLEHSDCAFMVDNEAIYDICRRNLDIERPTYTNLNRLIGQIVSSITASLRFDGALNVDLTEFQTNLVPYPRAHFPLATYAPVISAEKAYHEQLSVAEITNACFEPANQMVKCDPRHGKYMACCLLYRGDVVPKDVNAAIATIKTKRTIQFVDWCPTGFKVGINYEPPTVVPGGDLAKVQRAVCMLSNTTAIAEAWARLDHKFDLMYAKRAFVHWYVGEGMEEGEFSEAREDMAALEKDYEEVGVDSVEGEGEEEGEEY

With `COC(=O)Nc1nc2cc(C(=O)c3ccc(F)cc3)ccc2[nH]1` [flubendazole] the “absorption after oral dosing” value [1] was “rapidly absorbed”, the “Ka, mean” value ([1]; po) was 11.312 h⁻¹ and the “Ka, median” value ([1]; po) was 14.895 h⁻¹. The “Kbc, mean” value ([1]; po) was 0.056 h⁻¹, the “Kbc, median” value ([1]; po) was 0.056 h⁻¹ and the “Kcb, mean” value ([1]; po) was 3.446 h⁻¹. The “Kcb, median” value ([1]; po) was 0.594 h⁻¹, the “Kcp, mean” value ([1]; po) was 15.741 h⁻¹ and the “Kcp, median” value ([1]; po) was 15.404 h⁻¹. The “Kpc, mean” value ([1]; po) was 16.997 h⁻¹, the “Kpc, median” value ([1]; po) was 16.915 h⁻¹ and the “SCL/F (apparent clearance), mean” value ([1]; po) was 0.039 L/h. For the same molecule, the “SCL/F (apparent clearance), median” value ([1]; po) was 0.026 L/h, the “Vb/F (apparent volume of brain), mean” value ([1]; po) was 0.277 L and the “Vb/F (apparent volume of brain), median” value ([1]; po) was 0.146 L. For the same molecule, the “Vc/F (apparent volume of central compartment), mean” value ([1]; po) was 0.051 L, the “Vc/F (apparent volume of central compartment), median” value ([1]; po) was 0.069 L and the “cerebrum concentrations relative to plasma” value ([1]; po) was “consistently higher than those observed in plasma”. For the same molecule, the “ratio of AUC for serum and AUC for cerebrum” value ([1]; po) was 1:4.44, the toxicity findings [2] was “evidence of toxicity related to the pharmacological activity of flubendazole in the gastrointestinal tract, lymphoid system, and bone marrow, as well as testicular toxicity” and the “No. of isolates with MIC (mg/liter) of: 0.03” value (C. neoformans isolates) was 2. The “No. of isolates with MIC (mg/liter) of: 0.06” value (C. neoformans isolates) was 40, the “No. of isolates with MIC (mg/liter) of: 0.125” value (C. neoformans isolates) was 8 and the “No. of isolates with MIC (mg/liter) of: 0.25” value (C. neoformans isolates) was 0. For the same molecule, the “No. of isolates with MIC (mg/liter) of: 0.5” value (C. neoformans isolates) was 0, the IC50 (porcine tubulin) was 2.38 µM and the logD (In vitro DMPK: logD7.4) was 2.9. The “reduction in fungal burden compared with vehicle-treated controls” value (Cryptococcus neoformans; 12 mg/kg of body weight/day orally (abstract)) was about 2 log10CFU/g, the “effect on fungal growth in the brain” value (Cryptococcus neoformans; 12 mg/kg/day orally) was “slowed but did not prevent fungal growth in the brain” and the C50g (concentration inducing half-maximal effects on growth), mean (Cryptococcus neoformans; PK-PD model) was 2.04 mg/L. For the same molecule, the C50g (concentration inducing half-maximal effects on growth), median (Cryptococcus neoformans; PK-PD model) was 1.68 mg/L, the “Hg (slope function for effect on growth), mean” value (Cryptococcus neoformans; PK-PD model) was 10.338 and the “Hg (slope function for effect on growth), median” value (Cryptococcus neoformans; PK-PD model) was 5.096. For the same molecule, the “antifungal effect of 6 mg/kg q12h compared with 12 mg/kg/day” value (Cryptococcus neoformans; oral, single experiment, data not shown) was “no difference in antifungal effect”, the oral bioavailability [3] was “orally bioavailable” and the “drug concentrations in CSF or cerebrum” value ([3]; oral 6 or 22.5 mg/kg q24h, at time of sacrifice, limit of quantitation 0.0005 mg/liter) was “no quantifiable drug concentrations”.
